Data as given in patent publication US8168667B2 (Galapagos NV, priority 2006, dated 2012).
Read-outs that look alike come from different tables or passages of the source.

Molecular target: T1, human androgen receptor (hAR) (Homo sapiens, UniProt P10275)
T1 sequence (P10275 1-920): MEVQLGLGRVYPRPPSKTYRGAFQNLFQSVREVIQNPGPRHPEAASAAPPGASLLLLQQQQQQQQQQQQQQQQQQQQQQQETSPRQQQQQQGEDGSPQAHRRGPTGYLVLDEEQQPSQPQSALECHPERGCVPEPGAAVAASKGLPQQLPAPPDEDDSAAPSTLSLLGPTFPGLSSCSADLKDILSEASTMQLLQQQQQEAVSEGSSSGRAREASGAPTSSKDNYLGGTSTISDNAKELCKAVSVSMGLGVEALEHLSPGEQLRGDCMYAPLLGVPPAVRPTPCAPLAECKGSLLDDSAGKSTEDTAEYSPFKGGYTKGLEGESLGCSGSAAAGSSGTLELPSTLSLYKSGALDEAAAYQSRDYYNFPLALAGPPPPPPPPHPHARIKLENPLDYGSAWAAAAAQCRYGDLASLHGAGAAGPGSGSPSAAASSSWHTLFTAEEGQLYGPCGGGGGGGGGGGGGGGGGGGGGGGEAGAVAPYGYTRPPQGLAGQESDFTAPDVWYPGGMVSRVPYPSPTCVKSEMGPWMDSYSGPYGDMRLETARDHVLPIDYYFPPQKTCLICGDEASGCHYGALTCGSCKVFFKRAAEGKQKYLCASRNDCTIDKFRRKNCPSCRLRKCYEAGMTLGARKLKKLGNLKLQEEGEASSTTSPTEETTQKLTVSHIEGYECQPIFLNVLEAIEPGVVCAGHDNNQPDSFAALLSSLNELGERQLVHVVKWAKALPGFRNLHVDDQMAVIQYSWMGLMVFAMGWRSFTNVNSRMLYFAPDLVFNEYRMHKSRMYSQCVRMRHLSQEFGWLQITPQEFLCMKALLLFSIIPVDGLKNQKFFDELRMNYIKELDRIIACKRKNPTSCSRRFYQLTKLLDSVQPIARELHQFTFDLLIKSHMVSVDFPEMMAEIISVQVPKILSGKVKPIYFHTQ
Assay: Functional response test: hAR transactivation (luciferase reporter) in HALP2 cells
Assay type: cell-based
Conditions: for EC50: agonism, HALP2 cells (HeLa, hAR + ARE-luciferase), 20 hours at 37° C.
Excerpt: This test constitutes a method of identifying pure or partial agonists which mimic the effects of natural hormones, such as DHT (dihydrotestosterone) in the present case or, on the other hand, antagonists which inhibit them.
For this transactivation test, plasmids encoding a reporter gene and the human androgen receptor (hAR) are introduced together by transfection into the HeLa cell line. The reporter plasmid contains luciferase cDNA under the control of the AREs contained in the promoter sequences of the probasin gene (3xpbAREminicoll-luciferase/pGL3-puro). The expression of the reporter gene constitutes an indication of the transcriptional activity of hAR. It also encodes a protein allowing the cells expressing it to resist a treatment with puromycin. The plasmid encoding hAR contains the cDNA of hAR under the control of the Cytomegalovirus (CMV) promoter. It also encodes a protein allowing the cells expressing it to resist a treatment with neomycin. The treatment of cells with increasing amounts of potentially agonistic compounds will increase the expression of the reporter gene. To detect antagonists, on the other hand, increasing doses of test compounds are tested in the presence of […] of DHT. The expression of the reporter gene, which is constant for each dose of DHT, decreases when the concentration of the test compounds increases.
For this test, HeLa cells were obtained from the American Type Culture Collection (Rockville, Md.) and cultivated in DMEM medium containing 4.5 g/l of glucose, supplemented with Glutamax and with nonessential amino-acids and with 10% of foetal calf serum (SVF; Dominique Dutscher).
On the day before transfection, a million cells were seeded in DMEM medium without phenol red, supplemented with Glutamax and with desteroided SVF (5%) in Petri dishes. The cells were transfected with 4 μg of the puromycin resistance plasmids pcDNA3-hAR and 3xpbAREminicoll-luciferase/pGL3 using the reagent “Lipofectamine plus” (Invitrogen), following the supplier's recommendations. The day after transfection, the cells were seeded to different cell densities (10,000 to 100,000 cellules per Petri dish). Two days after transfection, the transfected cells were selected in DMEM medium without phenol red, supplemented with Glutamax and with desteroided SVF (5%) containing 400 μg/mL of G418 (Invitrogen) and 150 ng/mL of puromycin (Sigma). The culture medium was renewed weekly until resistant clones appeared. The resistant clones were removed and amplified before being tested for their functional response. […]
The functional response test was conducted on 96-well plates. The HALP2 cells were seeded (30,000 cells per well) 24 hours before the phase of stimulation in DMEM medium containing 4.5 g/L of glucose, supplemented with Glutamax and nonessential amino-acids, and with desteroided SVF (5%).
On the day of stimulation, the seeding medium was replaced by DMEM medium without phenol red, supplemented with Glutamax and with desteroided SVF (5%). […] The cells were placed in contact with the compounds for 20 hours at 37° C.

[1] = antagonism, concentration which increases the EC50 of the DHT by a factor of 2, Schild regression, HALP2 cells

EC50 [nM] | KSchild (nM) potency [1] [nM] | SMILES | KSchild (nM) potency [nM]
245 | 244.95 | O=C1C(c2ccc(O)cc2)N(Cc2ccc3c(c2)OCO3)C(=O)N1c1ccc(Cl)c(C(F)(F)F)c1 (stereo not drawn) [Example 101] | –
20 | 20 | C#CCN1C(=O)N(c2ccc(F)c(Cl)c2)C(=O)C1c1ccc(O)cc1 (stereo not drawn) [Example 70] | –
49 | 48.99 | O=C1C(c2ccc(O)cc2)N(Cc2ccc3c(c2)OCO3)C(=O)N1c1ccc(F)c(C(F)(F)F)c1 (stereo not drawn) [Example 102] | –
69.3 | 42.43 | CN1C(=O)N(c2ccc(F)c(Cl)c2)C(=O)C1c1ccc(O)cc1 (stereo not drawn) [Example 49] | –
77.5 | 77.46 | CCOCCCN1C(=O)N(c2ccc(F)c(C(F)(F)F)c2)C(=O)C1c1ccc(O)cc1 (stereo not drawn) [Example 87] | –
245 | 244.95 | N#CCCN1C(=O)N(c2cccc(C(F)(F)F)c2)C(=O)C1c1ccc(O)cc1 (stereo not drawn) [Example 128] | –
141 | 141.42 | CN(C)CCN1C(=O)N(c2ccc(Cl)c(Cl)c2)C(=O)C1c1ccc(O)cc1 (stereo not drawn) [Example 115] | –
200 | 200 | O=C1C(c2ccc(O)cc2)N(Cc2ccc3c(c2)OCO3)C(=O)N1c1cccc(C(F)(F)F)c1 (stereo not drawn) [Example 104] | –
600 | 600 | O=C1C(c2ccc(O)cc2)N(CCCCO)C(=O)N1c1ccc(F)c(F)c1 (stereo not drawn) [Example 133] | –
122 | 122.47 | O=C1C(c2ccc(O)cc2)N(CCCCO)C(=O)N1c1ccc(Cl)c(C(F)(F)F)c1 (stereo not drawn) [Example 134] | –
24.5 | 21.21 | C#CCN1C(=O)N(c2ccc(Cl)c(Cl)c2)C(=O)C1c1ccc(O)cc1 (stereo not drawn) [Example 66] | –

Continued, compound first:

SMILES | EC50 [nM] | KSchild (nM) potency [1] [nM] | KSchild (nM) potency [nM]
CCCC1(c2ccc(O)cc2)C(=O)N(c2ccc(C#N)c(C(F)(F)F)c2)C(=O)N1C (stereo not drawn) [Example 182.1, 4-[2,5-dioxo-4-(4-hydroxyphenyl)-3-methyl-4-propylimidazolidin-1-yl]-2-trifluoromethylbenzonitrile] | – | – | 15
C#CCN1C(=O)N(c2ccc(Cl)c(Cl)c2)C(=O)C1(C)c1ccc(O)cc1 (stereo not drawn) [Example 21, 1-(3,4-dichlorophenyl)-4-(4-hydroxyphenyl)-4-methyl-3-(2-propynyl)imidazolidine-2,5-dione] | – | – | 3
CC1(c2ccc(O)cc2)C(=O)N(c2ccc(Cl)c(Cl)c2)C(=O)N1CC#CCO (stereo not drawn) [Example 242, 1-(3,4-dichlorophenyl)-3-(4-hydroxy-2-butynyl)-4-(4-hydroxyphenyl)-4-methylimidazolidine-2,5-dione] | 12.3 | 12.25 | –
CC1(c2ccc(O)cc2)C(=O)N(c2ccc(C#N)c(C(F)(F)F)c2)C(=O)N1CS(C)(=O)=O (stereo not drawn) [Example 222.3, 4-[2,5-dioxo-4-(4-hydroxyphenyl)-4-methyl-3-[(methylsulphonyl)methyl]imidazolidin-1-yl]-2-trifluoromethylbenzonitrile] | – | 200 | –
CN1C(=O)N(c2ccc(Cl)c3ccccc23)C(=O)C1(C)c1ccc(O)cc1 (stereo not drawn) [Example 32, 1-(4-chloronaphthyl)-3,4-dimethyl-4-(4-hydroxyphenyl)imidazolidine-2,5-dione] | 300 | 300 | –
Cc1cc(Br)ccc1N1C(=O)N(C)C(C)(c2ccc(O)cc2)C1=O (stereo not drawn) [Example 27, 1-(4-bromo-2-methylphenyl)-3,4-dimethyl-4-(4-hydroxyphenyl)imidazolidine-2,5-dione] | 13.4 | 10.63 | –
CN1C(=O)N(c2ccc(C#N)c(C(F)(F)F)c2)C(=O)C1(c1ccc(O)cc1)C(F)(F)F (stereo not drawn) [Example 179, 4-[2,5-dioxo-4-(4-hydroxyphenyl)-3-methyl-4-trifluoromethylimidazolidin-1-yl]-2-trifluoromethylbenzonitrile] | – | – | 15
CCCN1C(=O)N(c2ccc(C#N)c(C(F)(F)F)c2)C(=O)C1c1ccc(O)cc1 (stereo not drawn) [Example 60] | – | – | 21.21
CN1C(=O)N(c2ccc(Cl)c(C(F)(F)F)c2)C(=O)C1c1ccc(O)cc1 (stereo not drawn) [Example 47] | – | – | 48.99
C#CCN1C(=O)N(c2ccc(C#N)c(C(F)(F)F)c2)C(=O)[C@@]1(C)c1ccc(O)cc1 [Example 156.1, (R)-4-[2,5-dioxo-4-(4-hydroxyphenyl)-4-methyl-3-(2-propynyl)imidazolidin-1-yl]-2-trifluoromethylbenzonitrile] | – | – | 6
CN1C(=O)N(c2ccc(Cl)c(Cl)c2)C(=O)C1(CO)c1ccc(O)cc1 (stereo not drawn) [Example 190, 1-(3,4-dichlorophenyl)-4-hydroxymethyl-4-(4-hydroxyphenyl)-3-methylimidazolidine-2,5-dione] | – | 0.37 | –
CC1(c2ccc(O)cc2)C(=O)N(c2ccc(C#N)c(C(F)(F)F)c2)C(=O)N1CC#CCO (stereo not drawn) [Example 243, 4-[2,5-dioxo-3-(4-hydroxy-2-butynyl)-4-(4-hydroxyphenyl)-4-methylimidazolidinyl-1-yl]-2-trifluoromethylbenzonitrile] | – | – | 4.56
COc1ccc(C2(CF)C(=O)N(c3ccc(Cl)c(Cl)c3)C(=O)N2C)cc1 (stereo not drawn) [Example 169, 1-(3,4-dichlorophenyl)-4-fluoromethyl-4-(4-methoxyphenyl)-3-methylimidazolidine-2,5-dione] | 10 | 10 | –
CCOCCCN1C(=O)N(c2ccc(C#N)c(C(F)(F)F)c2)C(=O)C1c1ccc(O)cc1 (stereo not drawn) [Example 82] | – | – | 30
C=CCN1C(=O)N(c2ccc(C#N)c(C(F)(F)F)c2)C(=O)C1c1ccc(O)cc1 (stereo not drawn) [Example 12, 4-[2,5-dioxo-4-(4-hydroxyphenyl)-3-(2-propenyl)imidazolidin-1-yl]-2-trifluoromethyl-benzonitrile] | – | – | 24.49
CN1C(=O)N(c2ccc(C#N)c(C(F)(F)F)c2)C(=O)[C@]1(CF)c1ccc(O)cc1 [Example 177.1, (S)-4-[4-fluoromethyl-4-(4-hydroxyphenyl)-3-methyl-2,5-dioxoimidazolidin-1-yl]-2-trifluoromethylbenzonitrile] | – | – | 310
CC1(c2ccc(O)cc2)C(=O)N(c2ccc(C#N)c(C(F)(F)F)c2)C(=O)N1CC#N (stereo not drawn) [Example 237, 4-[3-(cyanomethyl)-2,5-dioxo-4-(4-hydroxyphenyl)-4-methylimidazolidin-1-yl]-2-trifluoromethylbenzonitrile] | – | – | 8
CSCN1C(=O)N(c2ccc(C#N)c(C(F)(F)F)c2)C(=O)C1(C)c1ccc(O)cc1 (stereo not drawn) [Example 222.2] | – | – | 15
CN1C(=O)N(c2ccc(C#N)c(C(F)(F)F)c2)C(=O)[C@@]1(CF)c1ccc(O)cc1 [Example 177.2, (R)-4-[4-fluoromethyl-4-(4-hydroxyphenyl)-3-methyl-2,5-dioxoimidazolidin-1-yl]-2-trifluoromethylbenzonitrile] | – | – | 40.4
